Reference: patent US9458437B2, “Neuroprotective peptides that inhibit interaction between palmitoyl acyl transferase zinc-finger DHHC type containing 17 (zD17) and c-jun N-terminal kinase (JNK)” (The University of British Columbia, priority 2011, dated 2016)

What was measured:
neuronal cultures = experiment: LDH assay and PI staining, NMDA excitotoxicity-induced neuronal cell death; type: cell-based, rat; conditions: for excitotoxicity-induced cell death as measured by LDH release and PI staining: pretreatment, NMDA challenge 1 h, 24 h survival
Experimental: For biochemical studies, neurons were seeded in six-well culture plates with a density of 7.5×10^5 cells per well. For LDH assay and cell death detection, 24-well culture plates were used with a neuron density of 2.5×10^5 cells per well. Neurons of 14-17 days in vitro (DIV) were used for experiments. […] HEK 293 cells were maintained in DMEM (Invitrogen™) supplemented with 10% fetal bovine serum and 1% penicillin/streptomycin. For protein expression in cell lines, cells were transfected with Calcium Phosphate Transfection reagent (Promega™, San Luis Obispo, Calif., USA) and used 24 h later as described previously (Yang et al., 2009). The JNK inhibitor, L-JNKI, was purchased from Alexis Biochemicals™ (San Diego, Calif.). Thrombin was obtained from BIOPUR™ (Bubendorf, Switzerland). Other assay reagents without indication were obtained from Sigma™.
Neuronal cultures were challenged with indicated concentrations of NMDA for 1 h, followed by 24 h survival. The release of lactate dehydrogenase (LDH) was measured with an in vitro toxicology assay kit (Sigma™) according to the manufacturer's instructions. Spectrophotometric measurement was performed on a Multilabel Plate Reader (Envision™ 2103, Perkin Elmer™). The LDH reading represents the primary absorbance at a wavelength of 490 nm after subtraction of background absorbance at 690 nm. LDH readings were then converted to a percentage of neuronal death by dividing by the readings from cultures incubated with 1% triton for 15 min representing total LDH. Following the LDH assay, propidium iodide (PI) (Sigma™) was added to the medium at a final concentration of 1 μg/ml and neurons were stained for 30 min at 30° C. After fixation with 4% paraformaldehyde, neurons were washed with 1×PBS and stained with Hoechst™ 33342 (Sigma™). The fluorescence of PI and Hoechst™ were examined with laser microscopy and analyzed with ImageJ™.

[1] = tested on: middle cerebral artery occlusion (MCAo); experiment: transient MCAo in SD rats, adhesive removal test (ART); type: in vivo, Sprague-Dawley rat
Experimental: Adult male Sprague-Dawley (SD) rats weighing 250-290 g were employed for transient middle cerebral artery occlusion. Rats were anaesthetized with 5% isofluorane and maintained with 2% isofluorane in 70% N2O and 30% O2 using a face mask. 5 mg/kg ketoprofen was given pre-surgery to block pain. Rectal temperature was maintained at 37° C. during surgery with a homeothermic blanket system (Harvard Apparatus™, Holliston, Mass.). The scalp was incised at the midline and the skull was exposed. The skull was thinned with a dental drill at a region ipsilateral to the expected ischemia zone (2 mm posterior and 5 mm lateral from the bregma). A laser probe of the Doppler flowmeter (Perimed™, Jäffälla, Sweden) was placed at this location during surgery to detect cerebral blood flow (CBF) (Nagal et al., 2010). Transient MCAo was induced using a method of intraluminal vascular occlusion described elsewhere (Aarts et al., 2002; Belayev et al., 1996; and Longa et al., 1989). Briefly, a poly-L-lysine coated 3-0 monofilament nylon suture (Harvard Apparatus™, Holliston, Mass.) with a rounded tip was advanced from the left common carotid artery into the internal carotid artery until a sudden drop of CBF was noted, indicating the blockade of the origin of the MCA. The success of induction of ischemia was confirmed by a fall of CBF to less than 25% of baseline level and by neurological assessment scores during MCAo (1 h after the onset). Two hours after MCAo, rats were re-anaesthetized and the suture was removed to allow reperfusion, confirmed by the increase of CBF at the same area.
Peptides were synthesized by PepMetric Technologies™ or GL Biochem™ (Shanghai, China). Peptides were prepared freshly in saline on the day of experiment at a stock concentration of 1 mg/ml. 1 mg/kg peptides were administrated at indicated times (30 min before, 2 h after or 6 h after the onset of ischemia) by a single intravenous injection at rat tails. NIMoEscr or NIMoEsh were injected at 4 h after MCAo onset to randomly chosen rats. For long-term studies, peptides were given 2 h after MCAo onset. Injections of NIMoEscr and NIMoEsh were made, brain damage was assessed and functional evaluations performed in a double-blind manner To examine the delivery of the peptide into the brain, 5 mg/kg FITC-labelled NIMoE or only saline was intravenously injected 1 h before perfusion. The rats were then perfused with PBS followed by fixation solution (4% paraformaldehyde in PBS). Brains were removed, postfixed in fixation solution for 2 h and then soaked in 20% sucrose-PBS buffer at 4° C. for 24 h. After rapid freezing in Tissue-Tek™ embedding medium (Sakura™, Torrance, Calif.) on dry ice, 20 μm sections were cut on a cryostat (Leica™ CM3050, Ontario, Canada) and examined for FITC fluorescence by a laser microscopy (Zeiss™, Axiovert 200).
All animals were tested for neurological function during (1 h after onset) and 24 h after MCAo. Motor, sensory and coordination capacities were evaluated with modified Neurological Severity Scores (NSS) (Watanabe et al., 2004; Bederson et al., 1986). […] Coordination functions were assessed with 3 tests including a foot fault test, edge test and balance beam. Performance in the tests was evaluated on a cumulative scale from 0 to 2 (10 tests), except for two tests (tail suspension and balance beam in which scores ranged from 0 to Sand 0 to 4, respectively). […] The time spent on removing the tape from paw within 2 min was recorded.

Bax and Cyt.c = experiment: NMDA-induced translocation of Bax and Cyt.c (mitochondria fractionation); type: cell-based, rat; conditions: neuronal cultures
Experimental: Cultured neurons were lysed on ice for 10 min in TEEN-SKM buffer containing 20 mM Tris-HCl (pH7.5), 10 mM KCl, 1.5 mM MgCl2, 1 mM EGTA, 1 mM EDTA, 1 mM DTT supplemented with the Complete Protease Inhibitor tablets. The lysates were homogenized with a 28^1/2G syringe for a total of 8 times on ice, followed by centrifugation twice at 700 g for 10 min at 4° C. The supernatant was then centrifuged at 10,000 g for 30 min at 4° C. to enrich mitochondria in the pellet. The cytosolic fraction was collected from the supernatant after further centrifugation at 100,000 g for 1 h at 4° C. 1× and 4×LB were added to the mitochondrial and cytosolic fractions, respectively. Equivalent amounts of samples were resolved by SDS-PAGE and blotted with antibodies against Cytochrome c and Bax.

## HRYRWLTDLLSMVTTPAAPM (NIMoEscr scrambled NIMoE) [negative control peptide resulting from a scrambled NIMoE, reference compound]
Neuronal cultures
  excitotoxicity-induced cell death as measured by LDH release and PI staining: no protective effects
[1]; scrambled control peptide group
  adhesive removal test (ART), contralateral side: 10.80 ± 2.06 s

## MTPLMWAAYRTHSVDPTRLL (listed as Homo sapiens) [NIMoE, peptide comprising motif-E of zD17, fused to the cell-membrane transduction domain of HIV-1 Tat for cell experiments]
Neuronal cultures; NMDA 10 μM to 100 μM
  protection of neurons over NMDA concentrations: protected neurons against a broad range of NMDA concentrations
Neuronal cultures
  excitotoxicity-induced cell death as measured by LDH release and PI staining: significantly prevented
Bax and Cyt.c
  NMDA-induced translocation of Bax and Cyt.c: inhibited
[1]; injection +2 h
  adhesive removal test (ART), contralateral side: 62.1 ± 8.60 s
[1]; injection +4 h
  adhesive removal test (ART), contralateral side: 60.83 ± 8.13 s
[1]; injection −0.5 h
  adhesive removal test (ART), contralateral side: 48.62 ± 8.24 s

## WAAYRTHSVD (listed as Homo sapiens) [NIMoEsh, shorter 10mer of NIMoE, primarily the loop region of motif-E (zD17 196-205)]
Neuronal cultures
  excitotoxicity-induced cell death as measured by LDH release and PI staining: significantly prevented
Bax and Cyt.c
  NMDA-induced translocation of Bax and Cyt.c: inhibited
[1]; MCAo rats
  somatosensory functions in ART: large preservation of somatosensory functions
